Source: ChEMBL document CHEMBL3286108, “Novel arylsulfonamide derivatives with 5-HT₆/5-HT₇ receptor antagonism targeting behavioral and psychological symptoms of dementia” (J Med Chem, 2014)

Key:
[1] = molecular target: 5-hydroxytryptamine receptor 7 (Homo sapiens, UniProt P34969); experiment: biochemical; type: cell-based, CHO-K1
[2] = molecular target: hERG (KCNH2) potassium channel (Homo sapiens, UniProt Q12809); experiment: in vitro; settings: CHO cells expressing human cloned ERG
D(2) dopamine receptor = D(2) dopamine receptor (Homo sapiens, UniProt P14416); experiment: biochemical
[3] = molecular target: T1, Muscarinic acetylcholine receptor M1 (Homo sapiens) (UniProt P11229); experiment: Displacement of [3H]pirenzepine from human recombinant M1 receptor expressed in CHO cells at 1 uM; type: cell-based
T1 sequence (whole entry): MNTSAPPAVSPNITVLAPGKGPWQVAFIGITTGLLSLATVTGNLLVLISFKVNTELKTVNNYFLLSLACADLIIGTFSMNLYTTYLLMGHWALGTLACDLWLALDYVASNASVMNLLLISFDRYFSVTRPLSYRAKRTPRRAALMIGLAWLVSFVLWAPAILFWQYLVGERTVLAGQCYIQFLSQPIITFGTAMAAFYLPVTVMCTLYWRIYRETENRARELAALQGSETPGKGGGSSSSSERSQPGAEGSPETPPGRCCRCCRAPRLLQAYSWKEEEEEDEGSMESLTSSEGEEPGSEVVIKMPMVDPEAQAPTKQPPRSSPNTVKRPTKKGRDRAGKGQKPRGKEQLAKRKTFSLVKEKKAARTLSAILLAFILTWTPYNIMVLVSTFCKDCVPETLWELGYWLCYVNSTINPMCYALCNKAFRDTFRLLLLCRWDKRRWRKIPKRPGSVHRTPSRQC

[4] = molecular target: 5-hydroxytryptamine receptor 6 (Homo sapiens, UniProt P50406); experiment: biochemical
[5] = molecular target: 5-hydroxytryptamine receptor 2A (Homo sapiens, UniProt P28223); experiment: biochemical; type: cell-based, CHO-K1
5-hydroxytryptamine receptor 2A, sequence (P28223 whole entry): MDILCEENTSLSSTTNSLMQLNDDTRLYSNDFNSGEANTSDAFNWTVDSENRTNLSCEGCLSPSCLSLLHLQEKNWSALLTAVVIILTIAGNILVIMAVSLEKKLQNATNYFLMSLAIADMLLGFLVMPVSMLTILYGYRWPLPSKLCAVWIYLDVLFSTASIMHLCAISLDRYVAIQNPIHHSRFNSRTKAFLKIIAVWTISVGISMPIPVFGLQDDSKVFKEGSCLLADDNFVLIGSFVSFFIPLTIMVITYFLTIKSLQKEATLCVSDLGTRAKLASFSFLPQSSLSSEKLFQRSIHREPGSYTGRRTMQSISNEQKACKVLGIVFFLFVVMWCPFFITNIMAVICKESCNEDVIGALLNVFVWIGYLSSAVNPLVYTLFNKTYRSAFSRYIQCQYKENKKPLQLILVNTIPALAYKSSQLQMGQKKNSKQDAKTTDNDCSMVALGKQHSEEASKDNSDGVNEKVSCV

D(2) dopamine receptor, sequence (P14416 whole entry): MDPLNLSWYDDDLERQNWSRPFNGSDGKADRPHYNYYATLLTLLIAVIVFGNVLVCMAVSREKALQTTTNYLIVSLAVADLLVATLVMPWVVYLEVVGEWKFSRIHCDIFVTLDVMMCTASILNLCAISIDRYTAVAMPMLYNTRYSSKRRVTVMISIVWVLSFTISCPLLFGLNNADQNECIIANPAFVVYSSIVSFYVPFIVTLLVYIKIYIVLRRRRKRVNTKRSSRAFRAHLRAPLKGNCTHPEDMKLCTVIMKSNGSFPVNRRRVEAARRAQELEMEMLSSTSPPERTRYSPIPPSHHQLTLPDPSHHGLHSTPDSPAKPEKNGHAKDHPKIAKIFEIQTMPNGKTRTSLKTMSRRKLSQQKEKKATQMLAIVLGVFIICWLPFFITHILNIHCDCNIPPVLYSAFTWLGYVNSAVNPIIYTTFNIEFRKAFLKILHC
hERG (KCNH2) potassium channel, sequence (Q12809 whole entry): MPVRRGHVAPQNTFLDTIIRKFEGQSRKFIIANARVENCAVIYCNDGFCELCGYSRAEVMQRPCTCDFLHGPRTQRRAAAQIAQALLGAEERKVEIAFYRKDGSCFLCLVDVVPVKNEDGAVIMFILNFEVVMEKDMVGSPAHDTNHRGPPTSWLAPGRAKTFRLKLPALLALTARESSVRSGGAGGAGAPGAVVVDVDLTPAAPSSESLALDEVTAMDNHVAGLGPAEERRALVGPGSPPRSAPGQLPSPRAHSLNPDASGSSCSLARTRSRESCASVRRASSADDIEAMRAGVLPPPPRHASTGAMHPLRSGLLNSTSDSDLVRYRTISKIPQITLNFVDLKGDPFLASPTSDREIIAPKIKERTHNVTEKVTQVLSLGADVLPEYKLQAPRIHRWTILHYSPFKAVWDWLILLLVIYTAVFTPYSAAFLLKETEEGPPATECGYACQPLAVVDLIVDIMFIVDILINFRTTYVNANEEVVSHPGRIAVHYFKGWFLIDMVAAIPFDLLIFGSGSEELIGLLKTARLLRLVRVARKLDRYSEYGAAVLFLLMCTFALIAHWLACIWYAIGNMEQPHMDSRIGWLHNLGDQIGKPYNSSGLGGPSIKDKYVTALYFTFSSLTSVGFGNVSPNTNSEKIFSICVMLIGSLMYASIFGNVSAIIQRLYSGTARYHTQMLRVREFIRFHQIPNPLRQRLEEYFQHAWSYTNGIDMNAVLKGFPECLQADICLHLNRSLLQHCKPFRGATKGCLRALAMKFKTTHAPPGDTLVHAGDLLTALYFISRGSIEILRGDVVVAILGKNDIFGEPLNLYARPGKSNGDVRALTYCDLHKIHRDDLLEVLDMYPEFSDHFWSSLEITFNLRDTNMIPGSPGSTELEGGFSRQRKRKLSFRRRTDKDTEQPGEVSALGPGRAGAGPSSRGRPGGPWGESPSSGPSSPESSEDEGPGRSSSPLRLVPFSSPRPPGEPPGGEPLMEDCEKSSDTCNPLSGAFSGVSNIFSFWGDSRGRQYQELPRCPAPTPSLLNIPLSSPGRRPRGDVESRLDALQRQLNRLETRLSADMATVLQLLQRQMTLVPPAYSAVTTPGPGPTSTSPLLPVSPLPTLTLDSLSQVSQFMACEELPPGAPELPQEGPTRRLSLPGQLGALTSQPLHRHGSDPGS
5-hydroxytryptamine receptor 6, sequence (P50406 whole entry): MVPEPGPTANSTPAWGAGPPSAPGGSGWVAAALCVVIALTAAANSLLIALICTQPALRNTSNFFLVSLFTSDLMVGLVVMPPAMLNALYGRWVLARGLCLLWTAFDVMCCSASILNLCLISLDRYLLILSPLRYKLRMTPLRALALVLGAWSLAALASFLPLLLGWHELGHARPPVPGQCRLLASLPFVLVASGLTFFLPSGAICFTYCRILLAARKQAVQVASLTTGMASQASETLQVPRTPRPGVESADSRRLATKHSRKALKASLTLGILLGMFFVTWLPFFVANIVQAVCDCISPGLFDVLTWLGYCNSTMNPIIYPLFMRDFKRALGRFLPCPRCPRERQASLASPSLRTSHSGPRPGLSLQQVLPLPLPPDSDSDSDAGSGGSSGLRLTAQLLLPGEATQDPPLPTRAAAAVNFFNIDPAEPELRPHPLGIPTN
5-hydroxytryptamine receptor 7, sequence (P34969 whole entry): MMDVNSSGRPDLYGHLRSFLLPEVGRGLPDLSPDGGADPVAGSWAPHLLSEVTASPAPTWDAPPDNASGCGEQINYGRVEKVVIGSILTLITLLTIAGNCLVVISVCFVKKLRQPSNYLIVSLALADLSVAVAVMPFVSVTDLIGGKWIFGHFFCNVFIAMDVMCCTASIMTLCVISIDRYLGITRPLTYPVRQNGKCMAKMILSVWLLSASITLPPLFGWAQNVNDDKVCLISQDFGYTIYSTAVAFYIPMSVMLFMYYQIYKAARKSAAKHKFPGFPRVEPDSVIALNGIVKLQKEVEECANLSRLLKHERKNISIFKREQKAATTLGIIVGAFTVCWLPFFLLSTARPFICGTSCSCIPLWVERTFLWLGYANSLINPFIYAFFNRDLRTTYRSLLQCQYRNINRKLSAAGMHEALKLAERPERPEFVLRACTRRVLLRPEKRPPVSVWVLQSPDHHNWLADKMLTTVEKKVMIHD

SMILES | Ki [1] [nM] | inhibition at 1 µM [2] [%] | Ki (D(2) dopamine receptor) [nM] | inhibition [3] [%] | Ki [4] [nM] | Ki [5] [nM]
O=S(=O)(NCCCCN1CCN(c2noc3ccccc23)CC1)c1cnc2ccccn12 | 5.9 | 13 | 100 | 0 | 95 | 13
O=S(=O)(NCCCCN1CCN(c2nsc3ccccc23)CC1)c1cnc2ccccn12 | 4.1 | 17 | 46 | 6 | 140 | 8.1
O=S(=O)(NCCCN1CCN(c2nsc3ccccc23)CC1)c1ccc2ccccc2c1 | 1.5 | 13 | 2.2 | 0 | 40 | 10
O=S(=O)(NCCCN1CCC(c2noc3cc(F)ccc23)CC1)c1ccc2cc(Cl)ccc2c1 | 18 | 28 | 23 | -7 | 26 | 3.1
Cc1cccc(S(=O)(=O)NCCN2CCC(c3noc4cc(F)ccc34)CC2)c1 | 1.1 | 42 | 20 | 0 | 210 | 3.5
O=S(=O)(NCCCCN1CCN(c2noc3ccccc23)CC1)c1ccc(F)c(Cl)c1 | 0.1 | 45 | 77 | 6 | 27 | 17
O=S(=O)(NCCCCN1CCC(c2noc3cc(F)ccc23)CC1)c1cccs1 | 6.3 | 53 | > 1000 | 24 | 130 | 9.5
O=S(=O)(NCCCCN1CCN(c2nsc3ccccc23)CC1)c1ccc(Cl)c(Cl)c1 | 6.9 | 45 | 27 | 7 | 71 | 12
O=S(=O)(NCCCN1CCN(c2noc3ccccc23)CC1)c1ccc(Cl)c(Cl)c1 | 34 | 27 | > 10000 | 0 | 1100 | 290
O=S(=O)(NCCCN1CCN(c2noc3ccccc23)CC1)c1ccc2cc(Cl)ccc2c1 | 2500 | 14 | > 10000 | 3 | 2300 | > 10000
O=S(=O)(NCCCN1CCC(c2noc3cc(F)ccc23)CC1)c1csc2ccccc12 | 0.9 | 25 | 36 | -2 | 13 | 1.6
O=S(=O)(NCCCCN1CCC(c2noc3cc(F)ccc23)CC1)c1ccc(F)c(Cl)c1 | 4.4 | 90 | 26 | 18 | 48 | 9
O=S(=O)(NCCCN1CCN(c2noc3ccccc23)CC1)c1cccc2scnc12 | 41 | 17 | > 10000 | -2 | > 10000 | 3300
O=S(=O)(NCCCN1CCN(c2noc3ccccc23)CC1)c1cc2ccccc2s1 | 150 | 21 | 15 | 14 | 35 | 410
O=S(=O)(NCCCN1CCN(c2nsc3ccccc23)CC1)c1cnc2ccccn12 | 6.3 | 6 | 26 | 2 | 84 | 12
O=S(=O)(NCCCN1CCC(c2noc3cc(F)ccc23)CC1)c1cccc2scnc12 | 1.3 | 51 | > 1000 | 1 | 23 | 9.1
O=S(=O)(NCCCCN1CCN(c2nsc3ccccc23)CC1)c1ccc(F)c(Cl)c1 | 5.3 | 29 | 39 | -10 | 53 | 15
O=S(=O)(NCCCCN1CCC(c2noc3cc(F)ccc23)CC1)c1cnc2ccccn12 | 14 | 47 | > 1000 | 37 | 100 | 9.5

SMILES | Ki [1] [nM] | inhibition at 1 µM [2] [%] | Ki (D(2) dopamine receptor) [nM] | inhibition [3] [%] | Ki [4] [nM] | Ki [5] [nM]
O=S(=O)(NCCCN1CCC(c2noc3cc(F)ccc23)CC1)c1cc2ccccc2s1 | 4.1 | 34 | 11 | 13 | 40 | 0.9
O=S(=O)(NCCCN1CCC(c2noc3cc(F)ccc23)CC1)c1cnc2ccccn12 | 3.2 | 28 | 15 | -4 | 100 | 6.5
Cc1cccc(S(=O)(=O)NCCCCN2CCN(c3noc4ccccc34)CC2)c1 | 1.1 | 27 | 44 | -3 | 87 | 26
Cc1c(S(=O)(=O)NCCCCN2CCN(c3noc4ccccc34)CC2)sc2ccc(F)cc12 | 2.6 | 29 | 46 | -4 | 17 | 7.4
O=S(=O)(NCCCCN1CCC(c2noc3cc(F)ccc23)CC1)c1ccc(Cl)c(Cl)c1 | 5.1 | 82 | 15 | 27 | 26 | 4.9
O=S(=O)(NCCCN1CCN(c2noc3ccccc23)CC1)c1ccc(F)c(Cl)c1 | 9.9 | 33 | > 10000 | 2 | 330 | 98
O=S(=O)(NCCCCN1CCN(c2noc3ccccc23)CC1)c1cc2ccc(Cl)cc2s1 | 5.1 | 15 | 54 | -1 | 46 | 11
O=S(=O)(NCCCN1CCN(c2noc3ccccc23)CC1)c1cc2ccc(Cl)cc2s1 | 900 | 7 | 30 | 6 | 560 | 63
Cc1c(S(=O)(=O)NCCCCN2CCN(c3nsc4ccccc34)CC2)sc2ccc(F)cc12 | 4.6 | 5 | 44 | 10 | 54 | 6.5
O=S(=O)(NCCCCN1CCN(c2nsc3ccccc23)CC1)c1cccs1 | 3.2 | 40 | 3.2 | 1 | 42 | 5.5
Cc1c(S(=O)(=O)NCCCN2CCC(c3noc4cc(F)ccc34)CC2)sc2ccc(F)cc12 | 10 | 43 | 8 | 2 | 25 | 2.3
O=S(=O)(NCCCN1CCC(c2noc3cc(F)ccc23)CC1)c1ccc2ccccc2c1 | 0.8 | 63 | 1 | -7 | 32 | 2.8
O=S(=O)(NCCCN1CCN(c2nsc3ccccc23)CC1)c1ccc2cc(Cl)ccc2c1 | 38 | 7 | 6 | -7 | 100 | 13
O=S(=O)(NCCCCN1CCN(c2noc3ccccc23)CC1)c1cccs1 | 67 | 39 | 5.3 | 3 | 5200 | 2700
O=S(=O)(NCCCN1CCN(c2noc3ccccc23)CC1)c1ccc(OC(F)(F)F)cc1 | 380 | 10 | 63 | 3 | 2200 | 950
O=S(=O)(NCCCCN1CCN(c2noc3ccccc23)CC1)c1cc2ccccc2s1 | 180 | 14 | 1300 | 2 | 1100 | 190
O=S(=O)(NCCN1CCC(c2noc3cc(F)ccc23)CC1)c1cccc2ccccc12 | 1.3 | 0 | 9.1 | -8 | 250 | 0.7
